According to the SangsterLogP compilation:
Blank lines part the entries; values can stand above or below the compound they belong to.

Legend:
[1] = method code SF-AS, from Suikov, S.Yu.; Bondarenko, A.V.; Bogza, S.L.; Lutsyk, A.I. (2003). Distribution of 5-aminopyrazoles and 5-aminoisoxazoles in the octanol-water system. Ukr. Khim. Zh. (Russ. Ed.), 69(5/6)31-34.
[2] = method code SF-AS, from DOI: 10.1562/0031-8655(2002)076<0127:dlbcop>2.0.co;2, PMID: 12194207; conditions: pH 7.3
[3] = method code SF-AS, from Lee, B.; Shin, J.; Lim, M.; Jang, T.; Park, J.; Kim, K.; Kang, W. (1997). Partition Property of 5-Nitrothiopyrimidine Nucleoside. Bull Korean Chem Soc, 18(7)734-736.; conditions: pH 7.0
[4] = not given; remark: listed apart in the source
[5] = not given; remark: listed apart in the source
[6] = method code SF-AS, from DOI: 10.1016/j.dyepig.2012.09.011; conditions: pH 7.4
[7] = method code SF-AS, from DOI: 10.1562/0031-8655(2003)0780411sacotn2.0.co2, PMID: 14626671; conditions: pH 6.8
[8] = method code SF-AS, from DOI: 10.1021/acs.jmedchem.5b00731, PMID: 26397825; conditions: pH 7.4
[9] = method code SF-TN, from DOI: 10.1007/bf00632830
[10] = method code SF-RC, from DOI: 10.1016/j.nucmedbio.2016.05.003, PMID: 27236283; conditions: pH 7.4
[11] = method code SF-HPLC, from DOI: 10.1016/j.bmc.2009.01.040, PMID: 19208447; conditions: pH 7.0
[12] = method code SF-HPLC, from DOI: 10.1016/0378-5173(93)90356-k; conditions: pH 7.4
[13] = method code SF-AS, from DOI: 10.1021/jm0104926, PMID: 11960499
[14] = method code SF-FL, from DOI: 10.1562/0031-8655(2004)79<242:pmolop>2.0.co;2, PMID: 15115296; conditions: pH 7.4
[15] = method code SF-RC, from DOI: 10.1023/a:1015913817221, PMID: 2798313; conditions: pH 7.4
[16] = not given; remark: listed apart in the source
[17] = method code SF-HPLC, from DOI: 10.1002/ps.2780220406
[18] = method code SF-AS, from DOI: 10.1021/jm020389w, PMID: 12620073; conditions: pH 7.4
[19] = not given; remark: listed apart in the source
[20] = not given; remark: listed apart in the source
[21] = method code SF-AS, from DOI: 10.1016/s0021-9673(01)89384-5
[22] = method code SF-RC/EIA, from DOI: 10.1016/s0022-2275(20)42614-8, PMID: 2280184; conditions: pH 1.0
[23] = not given; remark: listed apart in the source
[24] = method code SF-CR+AS, from DOI: 10.1021/bi00514a045, PMID: 7248282; conditions: pH 7.0
[25] = not given; remark: listed apart in the source
[26] = not given; remark: listed apart in the source
[27] = method code SF-AS, from DOI: 10.1002/jps.2600600712, PMID: 4398902
[28] = method code SF-HPLC, from DOI: 10.1021/jm00056a006, PMID: 8474102; conditions: pH 7.4
[29] = not given; remark: listed apart in the source
[30] = method code SF-TN, from Korenman, I M.; Lunicheva, V.; Pomerantseva, G.; Khairulina, D. (1974). Distribution of methacrylic acid between organic solvents and water. Zh. Prikl. Khim., 47(10)2432-2434.
[31] = method code SF, from DOI: 10.1021/bi00507a030, PMID: 7213619; conditions: pH 1.0
[32] = method code SF-AS, from DOI: 10.1016/0223-5234(92)90105-a

logP [1]: 1.42
SMILES: COc1ccc(-c2cc(N)n[nH]2)cc1

SMILES: O=C(O)CNCP(=O)(O)O
logP: -3.3

logD [2]: 5.42
SMILES: Oc1cccc(-c2c3nc(c(-c4cccc(O)c4)c4ccc([nH]4)c(-c4cccc(O)c4)c4nc(c(-c5cccc(O)c5)c5ccc2[nH]5)CC4)C=C3)c1

logP [1]: 4.04
SMILES: Nc1c(-c2ccccc2)c(-c2ccccc2)nn1-c1ccccc1

logD [3]: -0.86
SMILES: S=c1cc[nH]c(=S)[nH]1

logP [4]: 1.56
SMILES: FC(F)(F)Cl

SMILES: ClCC(Cl)Cl
logP [5]: 1.98

logD [6]: 3.75
SMILES: Nc1cccc(-c2c3nc(c(-c4cccc(N)c4)c4ccc([nH]4)c(-c4cccc(N)c4)c4nc(c(-c5cccc(N)c5)c5ccc2[nH]5)C=C4)C=C3)c1

logD [7]: 1.67
SMILES: COC1=C2CC(C)=c3c(C(C)=O)c(OC)c(O)c4c3c2c2c(cc(OC)c3c(OC)cc(O)c4c32)C(=O)C1=O

logD [8]: 3.2
SMILES: CCN(CC)c1ccc(C=C2CC(=Cc3ccc(N(COCCOCCOCCOC)COCCOCCOCCOC)cc3)C2=O)cc1

SMILES: CN(C)C
logP [9]: 0.27

logD [10]: 1.85
SMILES: COc1cc(OCCF)cc(OC)c1NC(=O)c1ccc(Cc2cc3c(cc2C)CCCC3(C)C)o1

logD [10]: 1.43
SMILES: COc1cc(NCCCF)cc(OC)c1NC(=O)c1ccc(Cc2cc3c(cc2C)CCCC3(C)C)o1

logD [11]: -0.13
SMILES: CC(C(=O)OCC(O)C(OC1OC(CO)C(O)C(O)C1O)C(O)C(O)C=O)c1cccc(C(=O)c2ccccc2)c1 (stereo not drawn)

logD [12]: -0.7
SMILES: O=c1[nH]cc(F)c(=O)[nH]1

SMILES: [N-]=[N+]=CC(F)(F)F
logP [13]: 1.6

logD [11]: -0.25
SMILES: O=C(c1ccccc1)c1cccc(C(O)C(=O)OCC2OC(OC3OC(CO)C(O)C(O)C3O)C(O)C(O)C2O)c1 (stereo not drawn)

logD [2]: 3.35
SMILES: c1ccc2c(c1)-c1cc3[nH]c(cc4nc(cc5[nH]c(cc-2n1)c1ccccc51)-c1ccccc1-4)c1ccccc31

logD [14]: 4.93
SMILES: Oc1cccc(-c2c3nc(c(-c4cccc(O)c4)c4ccc([nH]4)c(-c4cccc(O)c4)c4nc(c(-c5cccc(O)c5)c5ccc2[nH]5)C=C4)C=C3)c1

logD [15]: -0.92
SMILES: NC(N)=S

logP [16]: 4.1
SMILES: O=C1C2C3CCC(CC3)C2C(=O)N1CCCCN1CCN(c2ccc3ccccc3n2)CC1 (stereo not drawn)

logP [17]: 2.54
SMILES: Clc1ccc(Cn2cncn2)cc1Cl

logD [18]: 1.55
SMILES: CCOC(=O)Nc1ccc2cc3ccc(N)c(CO)c3nc2c1

SMILES: CCC[N+](=O)[O-]
logP [19]: 0.86

logP [20]: -0.22
SMILES: Cn1cc[nH]c1=S

logP [21]: -0.55
SMILES: Cc1nccnn1

logD [22]: 1.65
SMILES: C[C@H](CCC(=O)NCC(=O)O)[C@H]1CC[C@H]2[C@@H]3[C@H](O)C[C@@H]4C[C@H](O)CC[C@]4(C)[C@H]3C[C@H](O)[C@]12C

logD [14]: 1.79
SMILES: O=S(=O)(O)c1ccc(-c2c3nc(c(-c4ccc(S(=O)(=O)O)cc4)c4ccc([nH]4)c(-c4ccccc4)c4nc(c(-c5ccccc5)c5ccc2[nH]5)C=C4)CC3)cc1

logP [23]: 1.52
SMILES: CC(=O)O[C@H]1C(=O)[C@@]2(C)[C@H]([C@H](OC(=O)c3ccccc3)[C@]3(O)C[C@H](OC(=O)[C@@H](C)O)C(C)=C1C3(C)C)[C@]1(OC(C)=O)CO[C@@H]1C[C@@H]2O

logD [24]: 0.32
SMILES: N#CSO

logP [25]: 4.46
SMILES: CC(C(=O)C1c2cccc(O)c2C(=O)c2c(O)cccc21)c1ccc(Cc2ccccc2)cc1 (stereo not drawn)

logD [8]: 2.86
SMILES: COCCOCCOCCOCN(C)c1ccc(C=C2CC(=Cc3ccc(N(C)COCCOCCOCCOC)cc3)C2=O)cc1

logP [26]: 5.2
SMILES: COC(=O)C1=C(C)NC(C)=C(C(=O)OCCN2CCN(C(c3ccccc3)c3ccccc3)CC2)C1c1cccc([N+](=O)[O-])c1 (stereo not drawn)

logP [25]: 5.17
SMILES: COc1ccc2c(c1)c(CC(=O)C1c3cccc(O)c3C(=O)c3c(O)cccc31)c(C)n2C(=O)c1ccc(Cl)cc1

logP [27]: 0.6
SMILES: S=C1CCCO1

logD [28]: 3.61
SMILES: CC(C)CC(O)C(O)C(CC1CCCCC1)NC(=O)C(Cc1cscn1)NC(=O)C(Cc1ccccc1)CS(=O)(=O)C1CCN(C)C1 (stereo not drawn)

logP [29]: 6.87
SMILES: CCCCOC(=O)CC(Cc1cncn1C)C(CC)C(=O)OCc1ccc(COC(=O)C(CC)C(CC(=O)OCCCC)Cc2cncn2C)cc1 (stereo not drawn)

logP [16]: 4.23
SMILES: O=C1CC2(CCCC2)CC(=O)N1CCCCN1CCN(c2ccc3ccccc3n2)CC1

logP [26]: 4.43
SMILES: CCOC(=O)C1=C(C)NC(C)=C(C(=O)OCC)C1c1ccccc1/C=C/C(=O)OC(C)(C)C

logP [23]: 1.92
SMILES: CC(=O)OC1C(=O)C2(C)C(O)CC3OCC3(OC(C)=O)C2C(OC(=O)c2ccccc2)C2(O)CC(OC(=O)C(O)CNC(=O)c3ccccc3)C(C)=C1C2(C)C (stereo not drawn)

logD [6]: 2.74
SMILES: C1=Cc2nc1c(-c1cccs1)c1ccc([nH]1)c(-c1cccs1)c1nc(c(-c3cccs3)c3ccc([nH]3)c2-c2cccs2)C=C1

logP [30]: 0.93
SMILES: C=C(C)C(=O)O

SMILES: C[C@H](CCC(=O)NCC(=O)O)[C@H]1CC[C@H]2[C@@H]3[C@H](O)C[C@@H]4C[C@H](O)CC[C@]4(C)[C@H]3CC[C@]12C
logD [22]: 2.12

logD [7]: 0.5
SMILES: COc1c(O)c2c(=O)cc(OC)c3c4c(OC)cc(=O)c5c(O)c(NCCN(C)C)c6c(c(c1C(C(C)=O)=C(C)C6)c23)c54

SMILES: CCC(N)=O
logD [31]: -0.66

logD [28]: 3.89
SMILES: CC(C)CC(O)C(O)C(CC1CCCCC1)NC(=O)C(Cc1nccs1)NC(=O)C(Cc1ccccc1)CS(=O)(=O)C1CN(C)C1 (stereo not drawn)

logP [29]: 5.47
SMILES: CCCOC(=O)CC(Cc1cncn1C)C(CC)C(=O)OCc1ccc(COC(=O)C(CC)C(CC(=O)OCCC)Cc2cncn2C)cc1 (stereo not drawn)

logP [32]: 1.83
SMILES: CCOC(=O)Nc1ccc2nn(C)nc2c1
